From patent US20040038985A1, “Crystal forms of 1- [6-chloro-5-(trifluoromethly) -2-pyridinyl] piperazine hydrochloride” (priority 2000, published 2004)

Experiments:
[1] = Stability of crystal forms A and B in admixture with excipients (HPLC content after storage); format: physicochemical; details: for content of Org 12962 remaining after storage, percentage of the initial amount: 14 days
Procedure: To each aliquot an excipient mentioned in Table II was added, followed by 10 μl of water, after which the suspensions were thoroughly mixed.
Aliquots of Org 12962 (5-10 mg) in crystal form B (100% form B) were weighed into roundbottomed tubes. To each aliquot an excipient mentioned in Table II was added, followed by 100 μl of water. Glass beads (250-300 mg) were added to each tube, after which the samples were thoroughly mixed for 1 minute. The residual water was evaporated in vacuo at room temperature. The tubes were stored in the dark for 14 days at either 20° C. or at 60° C. The samples were dissolved in 20.0 ml of a 70:30 mixture of 25 mM phosphate pH 2.6 buffer and acetonitrile. Dissolution was effected by keeping the tubes in a sonifier for 20 minutes.
Quantitative analysis of the amount of Org 12962 per tube was done by high performance liquid chromatography (hplc) using either of the following validated methods: (1) using a Symmetry Shield Reverse Phase RP 18 column (150×4.6 mm), which was operated at 40° C., using a flow rate of 1.0 ml/min, and as eluent a 69:31 (v/v) mixture of 25 mM phosphate buffer pH 2.6 buffer, also containing 15 mM octanesulphonic acid, and acetonitrile, or (2) using a Lichrospher 60 RP Select B column (125×4.0 mm), which was operated at ambient temperature, using a flow rate of 1.5 ml/min, and as eluent a 55:45 (v/v) mixture of methanol and water, also containing 5 mM octanesulphonic acid. The content of Org 12962 remaining in the samples after storage is given in Table II as the percentage (%) of the initial amount.

[2] = Thermodynamic stability / interconversion of crystal forms of Org 12962; format: physicochemical; details: solid crystal forms of Org 12962 compared
[3] = admixture with Cornstarch (10 mg per 5.0 mg Org 12962), 20° C./dark
[4] = admixture with Cornstarch (10 mg per 5.0 mg Org 12962), 60° C./dark
[5] = admixture with HPC (2 mg per 5.0 mg Org 12962), 20° C./dark
[6] = admixture with HPMC (1.3 mg per 5.0 mg Org 12962), 20° C./dark
[7] = admixture with HPMC (1.3 mg per 5.0 mg Org 12962), 60° C./dark
[8] = admixture with Lactose (80 mg per 5.0 mg Org 12962), 20° C./dark
[9] = admixture with Lactose (80 mg per 5.0 mg Org 12962), 60° C./dark
[10] = admixture with Mg-stearate (0.5 mg per 5.0 mg Org 12962), 20° C./dark
[11] = admixture with Mg-stearate (0.5 mg per 5.0 mg Org 12962), 60° C./dark
[12] = admixture with PEG 400 (0.3 mg per 5.0 mg Org 12962), 20° C./dark
[13] = admixture with PEG 400 (0.3 mg per 5.0 mg Org 12962), 60° C./dark
[14] = admixture with Primojel (4 mg per 5.0 mg Org 12962), 20° C./dark
[15] = admixture with Primojel (4 mg per 5.0 mg Org 12962), 60° C./dark
[16] = admixture with Talc (0.3 mg per 5.0 mg Org 12962), 20° C./dark
[17] = admixture with Talc (0.3 mg per 5.0 mg Org 12962), 60° C./dark
[18] = admixture with Titanium dioxide (0.2 mg per 5.0 mg Org 12962), 20° C./dark
[19] = admixture with Titanium dioxide (0.2 mg per 5.0 mg Org 12962), 60° C./dark

**Q.** Which results are given for `Cl.FC(F)(F)c1ccc(N2CCNCC2)nc1Cl` [I, 1-[6-Chloro-5-(trifluoromethyl)-2-pyridinyl]piperazine.hydrochloride]?
**A.** content of Org 12962 remaining after storage, percentage of the initial amount [1, 3]: 100.0%; content of Org 12962 remaining after storage, percentage of the initial amount [1, 4]: 82.6%; content of Org 12962 remaining after storage, percentage of the initial amount [1, 5]: 98.0%; content of Org 12962 remaining after storage, percentage of the initial amount [1, 6]: 95.0%; content of Org 12962 remaining after storage, percentage of the initial amount [1, 7]: 91.8%; content of Org 12962 remaining after storage, percentage of the initial amount [1, 8]: 94.5%; content of Org 12962 remaining after storage, percentage of the initial amount [1, 9]: 91.2%; content of Org 12962 remaining after storage, percentage of the initial amount [1, 10]: 97.9%; content of Org 12962 remaining after storage, percentage of the initial amount [1, 11]: 93.8%; content of Org 12962 remaining after storage, percentage of the initial amount [1, 12]: 96.5%; content of Org 12962 remaining after storage, percentage of the initial amount [1, 13]: 92.5%; content of Org 12962 remaining after storage, percentage of the initial amount [1, 14]: 95.0%; content of Org 12962 remaining after storage, percentage of the initial amount [1, 15]: 94.6%; content of Org 12962 remaining after storage, percentage of the initial amount [1, 16]: 99.2%; content of Org 12962 remaining after storage, percentage of the initial amount [1, 17]: 94.5%; content of Org 12962 remaining after storage, percentage of the initial amount [1, 18]: 96.0%; content of Org 12962 remaining after storage, percentage of the initial amount [1, 19]: 97.5%

**Q.** Which “thermodynamic stability of the crystal form” value ([2]; listed as crystal form B) does the source give for `Cl.FC(F)(F)c1ccc(N2CCNCC2)nc1Cl` [II, 1-[6-Chloro-5-(trifluoromethyl)-2-pyridinyl]piperazine.hydrochloride] here?
**A.** Its value is “thermodynamically most stable form”.

**Q.** What about the “content of Org 12962 remaining after storage, percentage of the initial amount” value [1, 3] of the same compound?
**A.** The value was 100.1%.

**Q.** And the “content of Org 12962 remaining after storage, percentage of the initial amount” value [1, 4]?
**A.** Its value is 97.9%.

**Q.** What about the “content of Org 12962 remaining after storage, percentage of the initial amount” value [1, 5] of the same compound?
**A.** Its value is 100.0%.

**Q.** And the “content of Org 12962 remaining after storage, percentage of the initial amount” value ([1]; admixture with HPC (2 mg per 5.0 mg Org 12962), 60° C./dark)?
**A.** Its value is 96.5%.

**Q.** What about the “content of Org 12962 remaining after storage, percentage of the initial amount” value [1, 6] of the same compound?
**A.** Its value is 100.0%.

**Q.** And the “content of Org 12962 remaining after storage, percentage of the initial amount” value [1, 7]?
**A.** The value was 97.8%.

**Q.** And the “content of Org 12962 remaining after storage, percentage of the initial amount” value [1, 8]?
**A.** The value was 99.6%.

**Q.** What about the “content of Org 12962 remaining after storage, percentage of the initial amount” value [1, 9] of the same compound?
**A.** Its value is 97.4%.

**Q.** What about the “content of Org 12962 remaining after storage, percentage of the initial amount” value [1, 10] of the same compound?
**A.** Its value is 99.9%.

**Q.** What about the “content of Org 12962 remaining after storage, percentage of the initial amount” value [1, 11] of the same compound?
**A.** The value was 97.9%.

**Q.** And the “content of Org 12962 remaining after storage, percentage of the initial amount” value [1, 12]?
**A.** The value was 99.8%.

**Q.** What about the “content of Org 12962 remaining after storage, percentage of the initial amount” value [1, 13] of the same compound?
**A.** The value was 96.3%.

**Q.** And the “content of Org 12962 remaining after storage, percentage of the initial amount” value [1, 14]?
**A.** The value was 100.0%.

**Q.** What about the “content of Org 12962 remaining after storage, percentage of the initial amount” value [1, 15] of the same compound?
**A.** The value was 96.0%.

**Q.** What about the “content of Org 12962 remaining after storage, percentage of the initial amount” value [1, 16] of the same compound?
**A.** Its value is 99.9%.

**Q.** And the “content of Org 12962 remaining after storage, percentage of the initial amount” value [1, 17]?
**A.** Its value is 100.1%.

**Q.** And the “content of Org 12962 remaining after storage, percentage of the initial amount” value [1, 18]?
**A.** The value was 99.8%.

**Q.** What about the “content of Org 12962 remaining after storage, percentage of the initial amount” value [1, 19] of the same compound?
**A.** Its value is 92.9%.

**Q.** What about the “stability in admixture with pharmaceutical excipients, compared with crystal form A” value ([1]; stored in the dark, especially notable at 60° C. with lactose and cornstarch) of the same compound?
**A.** The value was “more stable”.

**Q.** For `Cl.FC(F)(F)c1ccc(N2CCNCC2)nc1Cl` [form C, 1-[6-Chloro-5-(trifluoromethyl)-2-pyridinyl]piperazine.hydrochloride], which “thermodynamic stability of the crystal form” value [2] is on record?
**A.** The value was “spontaneously converts to form B, even at −20 °C”.
